How the values were obtained:
Test in all cases: radiometric filter-binding kinase assay, Kinase HotSpot
Details in all cases: compound 0.5 µM; ATP 10 µM
PRKACA (human) = PRKACA (human) (UniProt P17612)
MLTK (human) = MLTK (human) (UniProt Q9NYL2)
SRPK1 (human) = SRPK1 (human) (UniProt Q96SB4)
HIPK4 (human) = HIPK4 (human) (UniProt Q8NE63)
MAPKAPK5 (human) = MAPKAPK5 (human) (UniProt Q8IW41)
EPHB4 (human) = EPHB4 (human) (UniProt P54760)
CDC42BPA (human) = CDC42BPA (human) (UniProt Q5VT25)
HCK (human) = HCK (human) (UniProt P08631)
CAMKK2 (human) = CAMKK2 (human) (UniProt Q96RR4)
GSK3B (human) = GSK3B (human) (UniProt P49841)
TAOK2 (human) = TAOK2 (human) (UniProt Q9UL54)
MUSK (human) = MUSK (human) (UniProt O15146)
PDPK1 (human) = PDPK1 (human) (UniProt O15530)
RPS6KB2 (human) = RPS6KB2 (human) (UniProt Q9UBS0)
PHKG2 (human) = PHKG2 (human) (UniProt P15735)
STK4 (human) = STK4 (human) (UniProt Q13043)
TAOK3 (human) = TAOK3 (human) (UniProt Q9H2K8)
FRK (human) = FRK (human) (UniProt P42685)
LRRK2 (human) = LRRK2 (human) (UniProt Q5S007)
EGFR (human) = EGFR (human) (UniProt P00533)
YES1 (human) = YES1 (human) (UniProt P07947)
MYLK2 (human) = MYLK2 (human) (UniProt Q9H1R3)
MARK1 (human) = MARK1 (human) (UniProt Q9P0L2)
AKT2 (human) = AKT2 (human) (UniProt P31751)
CSNK1A1 (human) = CSNK1A1 (human) (UniProt P48729)
EPHA3 (human) = EPHA3 (human) (UniProt P29320)
CDK6 CCND1 (human) = CDK6 CCND1 (human) (UniProt Q00534+P24385)
MAP3K8 (human) = MAP3K8 (human) (UniProt P41279)
GSK3A (human) = GSK3A (human) (UniProt P49840)
PLK1 (human) = PLK1 (human) (UniProt P53350)
RPS6KA2 KD1 KD2 (human) = RPS6KA2 KD1 KD2 (human) (UniProt Q15349)
MARK2 (human) = MARK2 (human) (UniProt Q7KZI7)
MAPK10 (human) = MAPK10 (human) (UniProt P53779)
PAK6 (human) = PAK6 (human) (UniProt Q9NQU5)
NTRK1 (human) = NTRK1 (human) (UniProt P04629)
GRK4 (human) = GRK4 (human) (UniProt P32298)
EPHA5 (human) = EPHA5 (human) (UniProt P54756)
AURKA (human) = AURKA (human) (UniProt O14965)
STK39 (human) = STK39 (human) (UniProt Q9UEW8)
ADRBK1 (human) = ADRBK1 (human) (UniProt P25098)
NLK (human) = NLK (human) (UniProt Q9UBE8)
CAMK1G (human) = CAMK1G (human) (UniProt Q96NX5)

Chain of NLK (human) (Q9UBE8 whole entry, looked up): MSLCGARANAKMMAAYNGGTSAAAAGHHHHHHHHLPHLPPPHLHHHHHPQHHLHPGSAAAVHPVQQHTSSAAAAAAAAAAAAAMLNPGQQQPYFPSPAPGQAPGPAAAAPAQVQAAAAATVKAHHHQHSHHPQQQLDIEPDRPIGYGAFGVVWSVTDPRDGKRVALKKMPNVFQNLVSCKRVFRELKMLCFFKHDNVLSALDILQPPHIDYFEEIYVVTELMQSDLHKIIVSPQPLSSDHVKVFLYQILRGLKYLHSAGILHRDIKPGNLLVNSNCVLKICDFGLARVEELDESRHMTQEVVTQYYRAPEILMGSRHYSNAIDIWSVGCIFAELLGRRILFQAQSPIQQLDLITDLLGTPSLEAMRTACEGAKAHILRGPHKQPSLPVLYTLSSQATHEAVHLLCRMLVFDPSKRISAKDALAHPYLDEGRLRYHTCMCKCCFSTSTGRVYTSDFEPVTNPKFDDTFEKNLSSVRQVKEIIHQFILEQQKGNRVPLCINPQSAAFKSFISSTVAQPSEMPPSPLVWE
Chain of MAPK10 (human) (P53779 whole entry, looked up): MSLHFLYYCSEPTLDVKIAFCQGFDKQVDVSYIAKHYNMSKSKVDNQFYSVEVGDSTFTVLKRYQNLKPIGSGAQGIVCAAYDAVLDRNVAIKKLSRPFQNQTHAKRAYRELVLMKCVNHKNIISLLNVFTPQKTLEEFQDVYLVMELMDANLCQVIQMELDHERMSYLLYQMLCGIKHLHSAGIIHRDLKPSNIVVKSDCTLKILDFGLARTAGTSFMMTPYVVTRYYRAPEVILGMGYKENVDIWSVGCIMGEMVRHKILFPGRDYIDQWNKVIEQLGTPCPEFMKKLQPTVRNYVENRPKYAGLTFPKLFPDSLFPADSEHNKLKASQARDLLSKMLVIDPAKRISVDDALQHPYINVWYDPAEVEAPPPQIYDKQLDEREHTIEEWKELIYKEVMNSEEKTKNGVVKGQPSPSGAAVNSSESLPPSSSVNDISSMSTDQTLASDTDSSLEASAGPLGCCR
Chain of GSK3B (human) (P49841 whole entry, looked up): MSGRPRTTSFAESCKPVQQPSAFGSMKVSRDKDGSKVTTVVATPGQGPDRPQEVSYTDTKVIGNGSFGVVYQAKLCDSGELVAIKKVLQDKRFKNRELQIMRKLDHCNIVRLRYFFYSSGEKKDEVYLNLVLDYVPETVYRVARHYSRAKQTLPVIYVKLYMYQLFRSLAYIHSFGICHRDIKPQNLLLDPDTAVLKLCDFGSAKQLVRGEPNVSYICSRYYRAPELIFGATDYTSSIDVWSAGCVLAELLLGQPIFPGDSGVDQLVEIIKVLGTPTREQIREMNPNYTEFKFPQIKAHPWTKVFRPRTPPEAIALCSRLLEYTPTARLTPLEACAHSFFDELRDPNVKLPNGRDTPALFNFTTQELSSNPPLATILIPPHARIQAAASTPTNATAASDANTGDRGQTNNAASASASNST
Chain of STK4 (human) (Q13043 whole entry, looked up): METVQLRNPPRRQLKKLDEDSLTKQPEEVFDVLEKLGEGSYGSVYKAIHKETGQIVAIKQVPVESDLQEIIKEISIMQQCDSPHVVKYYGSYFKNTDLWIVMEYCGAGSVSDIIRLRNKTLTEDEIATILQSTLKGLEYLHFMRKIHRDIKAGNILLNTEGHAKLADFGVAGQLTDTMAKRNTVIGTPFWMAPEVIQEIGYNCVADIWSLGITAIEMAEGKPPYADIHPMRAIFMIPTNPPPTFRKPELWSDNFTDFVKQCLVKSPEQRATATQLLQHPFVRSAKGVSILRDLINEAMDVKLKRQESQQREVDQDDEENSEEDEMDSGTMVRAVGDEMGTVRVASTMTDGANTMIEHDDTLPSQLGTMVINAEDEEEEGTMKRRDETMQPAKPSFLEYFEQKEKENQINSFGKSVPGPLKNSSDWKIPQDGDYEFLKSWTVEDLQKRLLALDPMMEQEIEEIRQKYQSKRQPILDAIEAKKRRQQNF
Chain of AURKA (human) (O14965 whole entry, looked up): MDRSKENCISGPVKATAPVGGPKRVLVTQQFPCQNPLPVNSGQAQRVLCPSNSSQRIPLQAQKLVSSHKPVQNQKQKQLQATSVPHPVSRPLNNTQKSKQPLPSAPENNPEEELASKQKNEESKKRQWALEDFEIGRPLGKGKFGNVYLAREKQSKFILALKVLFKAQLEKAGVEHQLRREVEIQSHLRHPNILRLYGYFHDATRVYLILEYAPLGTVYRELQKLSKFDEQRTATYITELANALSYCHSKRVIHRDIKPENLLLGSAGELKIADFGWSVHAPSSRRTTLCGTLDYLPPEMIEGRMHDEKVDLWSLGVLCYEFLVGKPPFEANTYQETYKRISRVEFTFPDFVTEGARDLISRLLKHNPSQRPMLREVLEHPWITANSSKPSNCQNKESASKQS
Chain of NTRK1 (human) (P04629 whole entry, looked up): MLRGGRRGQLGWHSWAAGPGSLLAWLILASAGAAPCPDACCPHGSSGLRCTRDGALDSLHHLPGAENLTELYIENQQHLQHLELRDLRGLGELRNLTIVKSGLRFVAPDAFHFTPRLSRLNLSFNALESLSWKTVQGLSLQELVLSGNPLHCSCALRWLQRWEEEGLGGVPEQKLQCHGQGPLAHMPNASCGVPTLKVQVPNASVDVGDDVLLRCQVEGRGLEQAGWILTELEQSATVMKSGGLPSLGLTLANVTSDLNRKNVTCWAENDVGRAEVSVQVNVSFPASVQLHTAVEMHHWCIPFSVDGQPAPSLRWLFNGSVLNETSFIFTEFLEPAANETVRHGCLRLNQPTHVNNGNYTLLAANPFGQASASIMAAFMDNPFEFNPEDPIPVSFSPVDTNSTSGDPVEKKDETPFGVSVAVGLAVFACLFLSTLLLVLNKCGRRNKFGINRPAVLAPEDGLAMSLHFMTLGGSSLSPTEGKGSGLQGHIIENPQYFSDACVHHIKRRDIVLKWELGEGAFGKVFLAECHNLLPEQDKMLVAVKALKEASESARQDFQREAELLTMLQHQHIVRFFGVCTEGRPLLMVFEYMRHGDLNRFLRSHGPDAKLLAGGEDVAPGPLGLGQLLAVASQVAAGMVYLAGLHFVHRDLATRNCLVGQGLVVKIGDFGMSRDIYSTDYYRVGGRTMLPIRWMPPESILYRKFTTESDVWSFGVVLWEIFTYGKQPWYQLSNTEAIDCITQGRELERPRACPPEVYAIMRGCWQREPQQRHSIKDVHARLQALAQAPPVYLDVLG
Chain of CSNK1A1 (human) (P48729 whole entry, looked up): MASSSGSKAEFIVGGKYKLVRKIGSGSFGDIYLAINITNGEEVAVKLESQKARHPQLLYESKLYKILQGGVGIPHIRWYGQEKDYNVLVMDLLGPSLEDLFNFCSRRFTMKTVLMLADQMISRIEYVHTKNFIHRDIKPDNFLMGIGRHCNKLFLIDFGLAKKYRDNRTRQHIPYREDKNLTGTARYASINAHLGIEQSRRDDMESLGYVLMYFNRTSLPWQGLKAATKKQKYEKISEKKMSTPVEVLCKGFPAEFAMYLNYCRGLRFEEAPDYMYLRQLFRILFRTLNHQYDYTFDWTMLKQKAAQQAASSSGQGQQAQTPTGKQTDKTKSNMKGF
Chain of PHKG2 (human) (P15735 whole entry, looked up): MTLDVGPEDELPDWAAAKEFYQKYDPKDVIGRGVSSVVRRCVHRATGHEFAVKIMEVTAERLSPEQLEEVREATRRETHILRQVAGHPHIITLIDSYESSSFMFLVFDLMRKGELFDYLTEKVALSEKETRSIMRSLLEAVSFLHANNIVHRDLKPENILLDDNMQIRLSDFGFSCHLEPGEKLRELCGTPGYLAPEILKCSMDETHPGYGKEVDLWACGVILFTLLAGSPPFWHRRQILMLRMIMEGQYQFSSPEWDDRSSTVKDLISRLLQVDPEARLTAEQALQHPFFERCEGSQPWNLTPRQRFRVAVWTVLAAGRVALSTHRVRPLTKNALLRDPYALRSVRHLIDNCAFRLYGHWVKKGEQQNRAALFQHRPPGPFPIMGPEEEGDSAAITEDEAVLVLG
Chain of RPS6KA2 KD1 KD2 (human) (Q15349 whole entry, looked up): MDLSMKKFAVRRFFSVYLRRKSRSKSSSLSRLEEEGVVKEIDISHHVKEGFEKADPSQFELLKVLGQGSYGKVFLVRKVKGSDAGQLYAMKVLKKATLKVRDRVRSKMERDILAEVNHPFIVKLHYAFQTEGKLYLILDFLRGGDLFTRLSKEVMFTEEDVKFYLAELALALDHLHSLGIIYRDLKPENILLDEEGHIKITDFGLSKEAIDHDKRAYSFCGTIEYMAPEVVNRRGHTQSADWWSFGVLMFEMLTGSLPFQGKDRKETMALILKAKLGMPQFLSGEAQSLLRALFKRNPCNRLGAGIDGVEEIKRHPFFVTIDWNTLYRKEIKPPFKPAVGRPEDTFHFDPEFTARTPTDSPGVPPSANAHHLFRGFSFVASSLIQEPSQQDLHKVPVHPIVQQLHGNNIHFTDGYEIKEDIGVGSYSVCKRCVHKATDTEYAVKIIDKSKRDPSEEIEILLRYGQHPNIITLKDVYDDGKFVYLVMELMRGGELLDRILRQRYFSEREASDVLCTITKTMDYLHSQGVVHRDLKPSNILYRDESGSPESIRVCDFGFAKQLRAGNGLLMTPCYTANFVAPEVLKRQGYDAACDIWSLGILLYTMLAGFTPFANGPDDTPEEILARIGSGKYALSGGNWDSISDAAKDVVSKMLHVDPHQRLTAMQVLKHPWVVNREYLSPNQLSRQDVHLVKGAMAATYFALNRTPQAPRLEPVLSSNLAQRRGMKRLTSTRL

Compound: O=C(CCCc1ccc(-c2ccccc2F)cc1)Nc1ccc(O)cc1
- residual activity (PRKACA (human)): 99.5%
- residual activity (MLTK (human)): 97.8%
- residual activity (SRPK1 (human)): 98.6%
- residual activity (HIPK4 (human)): 105%
- residual activity (MAPKAPK5 (human)): 91.4%
- residual activity (EPHB4 (human)): 106%
- residual activity (CDC42BPA (human)): 103%
- residual activity (HCK (human)): 93.5%
- residual activity (CAMKK2 (human)): 86.6%
- residual activity (GSK3B (human)): 99.4%
- residual activity (TAOK2 (human)): 98.4%
- residual activity (MUSK (human)): 93.1%
- residual activity (PDPK1 (human)): 112%
- residual activity (RPS6KB2 (human)): 104%
- residual activity (PHKG2 (human)): 102%
- residual activity (STK4 (human)): 95%
- residual activity (TAOK3 (human)): 91.4%
- residual activity (FRK (human)): 91.9%
- residual activity (LRRK2 (human)): 98%
- residual activity (EGFR (human)): 87.9%
- residual activity (YES1 (human)): 110%
- residual activity (MYLK2 (human)): 97.8%
- residual activity (MARK1 (human)): 96.7%
- residual activity (AKT2 (human)): 101%
- residual activity (CSNK1A1 (human)): 101%
- residual activity (EPHA3 (human)): 100%
- residual activity (CDK6 CCND1 (human)): 98.2%
- residual activity (MAP3K8 (human)): 101%
- residual activity (GSK3A (human)): 98.6%
- residual activity (PLK1 (human)): 95.5%
- residual activity (RPS6KA2 KD1 KD2 (human)): 101%
- residual activity (MARK2 (human)): 91.5%
- residual activity (MAPK10 (human)): 100%
- residual activity (PAK6 (human)): 108%
- residual activity (NTRK1 (human)): 103%
- residual activity (GRK4 (human)): 96.8%
- residual activity (EPHA5 (human)): 99%
- residual activity (AURKA (human)): 104%
- residual activity (STK39 (human)): 95.4%
- residual activity (ADRBK1 (human)): 105%
- residual activity (NLK (human)): 101%
- residual activity (CAMK1G (human)): 96.8%

Compound: CC(C)[C@H](CO)Nc1nc(Nc2cc(N)cc(Cl)c2)c2ncn(C(C)C)c2n1
- residual activity (PRKACA (human)): 101%
- residual activity (MLTK (human)): 92.3%
- residual activity (SRPK1 (human)): 62.1%
- residual activity (HIPK4 (human)): 96.4%
- residual activity (MAPKAPK5 (human)): 95.8%
- residual activity (EPHB4 (human)): 58.4%
- residual activity (CDC42BPA (human)): 99.4%
- residual activity (HCK (human)): 27.3%
- residual activity (CAMKK2 (human)): 33.2%
- residual activity (GSK3B (human)): 103%
- residual activity (TAOK2 (human)): 82.2%
- residual activity (MUSK (human)): 46%
- residual activity (PDPK1 (human)): 106%
- residual activity (RPS6KB2 (human)): 98.2%
- residual activity (PHKG2 (human)): 105%
- residual activity (STK4 (human)): 63.6%
- residual activity (TAOK3 (human)): 86.9%
- residual activity (FRK (human)): 70.3%
- residual activity (LRRK2 (human)): 101%
- residual activity (EGFR (human)): 93.9%
- residual activity (YES1 (human)): 7.03%
- residual activity (MYLK2 (human)): 99.5%
- residual activity (MARK1 (human)): 87.5%
- residual activity (AKT2 (human)): 100%
- residual activity (CSNK1A1 (human)): 75.5%
- residual activity (EPHA3 (human)): 86.6%
- residual activity (MAP3K8 (human)): 109%
- residual activity (GSK3A (human)): 101%
- residual activity (PLK1 (human)): 54.9%
- residual activity (RPS6KA2 KD1 KD2 (human)): 48.7%
- residual activity (MARK2 (human)): 74.1%
- residual activity (MAPK10 (human)): 94.6%
- residual activity (PAK6 (human)): 57.3%
- residual activity (NTRK1 (human)): 45.4%
- residual activity (GRK4 (human)): 103%
- residual activity (EPHA5 (human)): 64%
- residual activity (AURKA (human)): 80.5%
- residual activity (STK39 (human)): 83.7%
- residual activity (ADRBK1 (human)): 83%
- residual activity (NLK (human)): 93.9%
- residual activity (CAMK1G (human)): 105%

Compound: CN([C@@H](Cc1ccc(OS(=O)(=O)c2cccc3cnccc23)cc1)C(=O)N1CCN(c2ccccc2)CC1)S(=O)(=O)c1cccc2cnccc12
- residual activity (MLTK (human)): 103%
- residual activity (SRPK1 (human)): 104%
- residual activity (HIPK4 (human)): 105%
- residual activity (MAPKAPK5 (human)): 97%
- residual activity (CDC42BPA (human)): 98.9%
- residual activity (HCK (human)): 97.4%
- residual activity (CAMKK2 (human)): 84.2%
- residual activity (GSK3B (human)): 96.6%
- residual activity (TAOK2 (human)): 98.3%
- residual activity (MUSK (human)): 92.7%
- residual activity (PDPK1 (human)): 96.4%
- residual activity (RPS6KB2 (human)): 96.6%
- residual activity (PHKG2 (human)): 101%
- residual activity (STK4 (human)): 96.8%
- residual activity (TAOK3 (human)): 89.9%
- residual activity (FRK (human)): 101%
- residual activity (LRRK2 (human)): 97.1%
- residual activity (EGFR (human)): 89.4%
- residual activity (YES1 (human)): 110%
- residual activity (MYLK2 (human)): 98.8%
- residual activity (MARK1 (human)): 96.7%
- residual activity (AKT2 (human)): 106%
- residual activity (CSNK1A1 (human)): 99%
- residual activity (EPHA3 (human)): 102%
- residual activity (CDK6 CCND1 (human)): 91.6%
- residual activity (MAP3K8 (human)): 99.3%
- residual activity (GSK3A (human)): 99.8%
- residual activity (PLK1 (human)): 96.7%
- residual activity (RPS6KA2 KD1 KD2 (human)): 102%
- residual activity (MARK2 (human)): 103%
- residual activity (MAPK10 (human)): 88.2%
- residual activity (PAK6 (human)): 102%
- residual activity (NTRK1 (human)): 111%
- residual activity (GRK4 (human)): 96.5%
- residual activity (EPHA5 (human)): 102%
- residual activity (AURKA (human)): 86.2%
- residual activity (STK39 (human)): 93.5%
- residual activity (ADRBK1 (human)): 97.5%
- residual activity (NLK (human)): 106%
- residual activity (CAMK1G (human)): 93.6%

— the kinase profiling compilation of Christmann-Franck et al. (2016)
